Assay: Human HepG2 cell viability assay in 384 well format
Assay type: toxicity, cell-based
Parameters: dose 125 nL, time 70.5 hour; cytotoxicity at 70.5 h: concentration not given beside the values
Settings: HepG2 cells, read-out: Inhibition

| SMILES | cytotoxicity at 70.5 h [%] |
| --- | --- |
| CN(C)CCn1ccc2ccc(NC(=O)c3ccncc3F)cc21 | -6.52 |
| NC(=O)c1cccc(OCCC(=O)NC2CCc3c(F)cccc32)c1 (centres undefined) | -9.97 |
| N#Cc1ccc(NCCc2n[nH]c(=O)[nH]2)cc1Cl | -10.2 |
| O=C(c1coc2ccccc12)N1CCCC1 | -9.29 |
| O=C(CO)N1CCN(C(=O)c2coc3ccccc23)CC1 | -7.53 |
| CC(C)OCCSCc1nnc(-c2cccc(F)c2)o1 | -5.57 |
| CCCN(Cc1ccc(C#N)cc1)Cc1nnsc1Cl | 26.4 |
| CC(=O)c1ccc(C(=O)N2CCCCC2c2nc[nH]n2)cc1 (centres undefined) | 1.34 |
| Cc1cc(NC(=O)CNc2cccc(C(=O)N3CCCC(O)C3)c2)no1 (centres undefined) | -3.66 |
| COc1cccc(CNc2cc(C)nc(-c3ccncc3)n2)c1OC | -6.44 |
| O=C(Nc1ccc(CC(=O)N2CCSCC2)cc1)NC1CCCC1 | -4.2 |
| CCOc1ccccc1C(CC(=O)O)NC(C)=O (centres undefined) | -4.62 |
| CC(C)C(C)(C#N)NC(=O)Cn1cc(C(N)=O)c(-c2ccccc2)n1 (centres undefined) | -6.34 |
| Cc1cc(C)n(C2CN(CCc3ccncc3)C2)n1 | 42.3 |
| CCc1ccc(NC(=O)C(C)N2CCN(Cc3ncc[nH]3)CC2)cc1 (centres undefined) | -2.82 |
| COc1cc(CNc2cnn(CCN3CCOCC3)c2)cc(OC)c1 | -20.4 |
| CCS(=O)(=O)CCN(C)C(=O)NC(C)c1ccc(C)s1 (centres undefined) | -5.27 |
| OC(COCc1ccccc1F)CN1CCC(Cn2cccn2)CC1 (centres undefined) | -0.0861 |
| CCN(C(=O)CCCOC)C(c1ccc(Cl)cc1)c1ccccn1 (centres undefined) | 31.1 |
| Cc1cccc2c1NC(c1cnc(C3CCC3)s1)NC2=O (centres undefined) | -18.5 |

| SMILES | cytotoxicity at 70.5 h [%] |
| --- | --- |
| O=C(COCc1ccccc1Cl)Nc1ccnn1CC1CCOC1 (centres undefined) | -18.3 |
| COc1ccc(C2CCN(C(=O)c3ncccc3OC(C)C)C2)cc1 (centres undefined) | 11.5 |
| CCN(Cc1cnn(C)c1)C(=O)c1cc2ccccc2c(=O)[nH]1 | -7.09 |
| NC(=O)CC1CCCCN1C(=O)Cc1cccc(Br)c1 (centres undefined) | -4.57 |
| CS(=O)(=O)NC1CCN(C(=O)c2[nH]c3ccc(Cl)cc3c2Cl)CC1 | 31.7 |
| Cc1cccc(C2(CNC(=O)C(C)S(C)(=O)=O)CCCC2)c1 (centres undefined) | -3.73 |
| Cc1cccc(C2(CNC(=O)C(C)NC(N)=O)CCCC2)c1 (centres undefined) | 4.08 |
| CC(C(=O)N(C)C)S(=O)(=O)c1cc2c(cc1Cl)OCCO2 (centres undefined) | -6.12 |
| N#Cc1cc(S(N)(=O)=O)ccc1NC1CCc2cc(Cl)ccc21 (centres undefined) | -11.2 |
| N#Cc1cc(S(N)(=O)=O)ccc1NC1CCc2ccc(F)cc21 (centres undefined) | 7.54 |
| Cn1cc(CNc2ccc(CCO)cc2)c(-c2ccncc2)n1 | 21.4 |
| Cc1ccc(OCC(O)Cn2ncc3cnn(C)c(=O)c32)cc1 (centres undefined) | -6.88 |
| Cc1ccc(N2CCCC(N3CCN(CC(F)F)CC3)C2=O)cc1 (centres undefined) | -6.94 |
| CSCCN(C)Cc1ccc(F)cc1C#N | -4.74 |
| Cc1cnc(NCc2ccc(S(=O)(=O)N(C)C(C)C)cc2)nc1C | -11.1 |
| CCCc1nccn1CCn1cnc2ccsc2c1=O | 1.1 |
| CC(C)c1nccn1CCn1cnc2ccsc2c1=O | -8.28 |
| CN(Cc1ccc(F)cc1C#N)CC(F)(F)F | 17.4 |
| Cc1cc(C)n(C2CN(CC(O)Cn3cccn3)C2)n1 (centres undefined) | 7.73 |
| Cc1ccc(C)c(CS(=O)(=O)CC(=O)N(C)Cc2cccc(F)c2)c1 | 21.1 |

| SMILES | cytotoxicity at 70.5 h [%] |
| --- | --- |
| Cc1ccccc1CS(=O)(=O)CC(=O)N(C)Cc1ccccc1 | -9.59 |
| Cc1noc(C)c1CNC(=O)C1(NS(C)(=O)=O)CCCCC1 | -5.85 |
| Cc1noc(C)c1CN(C)C(=O)C1(NS(C)(=O)=O)CCCCC1 | -0.856 |
| COCc1nc(C(=O)N2CCN(Cc3cc(C)on3)CC2)cs1 | -5.75 |
| CC(C(=O)NC1CC1)S(=O)(=O)Cc1csc(-c2cccs2)n1 (centres undefined) | 11 |
| COCCN1CCC(NCc2c(C)nn(C)c2N(C)C)CC1 | -4.85 |
| Cc1ccccc1CS(=O)(=O)CC(=O)N(C)Cc1ccccc1F | -1.24 |
| Cc1noc(C)c1CN(C)C(=O)C1(N)CCCCC1 | -2.97 |
| O=C(C1CCCN1S(=O)(=O)C1CCCC1)N1CCSCC1 (centres undefined) | -5.09 |
| Cc1nnc(CN2CCCC2c2cccc(Br)c2)o1 (centres undefined) | -4.5 |
| CC(C)N(C)S(=O)(=O)N1CCCC1C(=O)N1CCSCC1 (centres undefined) | -0.523 |
| CCN1CCN(c2ccc(C(=O)NCCOC)cc2F)CC1 | 25.2 |
| Cc1cnn(C2CN(CC(O)Cn3cccn3)C2)c1 (centres undefined) | 7.89 |
| NS(=O)(=O)c1cnn(-c2ccc(NC(=O)CC3CCCC3)cn2)c1 | -5.14 |
| NS(=O)(=O)c1cnn(-c2ccc(NC(=O)C3CCCCC3)cn2)c1 | -0.503 |
| Cc1ccc(C(=O)NS(=O)(=O)Cc2ccon2)c(C)c1 | -4.2 |
| CC(c1cc(F)ccc1F)N1CCN(C(=O)c2ccc(=O)[nH]c2)CC1 (centres undefined) | -1.22 |
| COc1cc(C)c(CNC(C)c2csc(C3CC3)n2)cc1OC (centres undefined) | -4 |
| CCOc1cc(CNC(C)c2sccc2C)ccn1 (centres undefined) | -0.185 |
